Data: patent US20100021945A1, “DETERMINATION OF CHANGES IN CONCENTRATION” (JACOBS UNIVERSITY BREMEN GGMBH, priority 2006, published 2010)

Experiments:
[1] = biological target: T1, arginase (Homo sapiens, UniProt P05089); test: Arginase inhibitor screening, Hill analysis of fluorescence (DBO-amine/calixarene displacement assay); type: biochemical; conditions: 0.5 mM arginine, 16 μg/ml arginase, water pH 9.5, 100 μM DBO-amine, 200 μM p-sulphonato-calix[4]arene, 6 min incubation
T1 sequence (P05089 1-322): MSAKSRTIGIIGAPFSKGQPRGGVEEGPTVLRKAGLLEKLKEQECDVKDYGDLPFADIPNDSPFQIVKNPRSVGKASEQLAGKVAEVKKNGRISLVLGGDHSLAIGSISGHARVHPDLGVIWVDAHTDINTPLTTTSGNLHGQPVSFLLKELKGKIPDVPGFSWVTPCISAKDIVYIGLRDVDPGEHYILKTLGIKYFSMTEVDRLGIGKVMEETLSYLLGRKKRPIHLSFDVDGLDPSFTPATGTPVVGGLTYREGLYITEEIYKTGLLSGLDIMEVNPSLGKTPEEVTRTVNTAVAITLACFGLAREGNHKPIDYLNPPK

[2] = Binding to macrocycle / dapoxyl displacement in the lysine decarboxylase assay; conditions: for binding constant K: cucurbit[7]uril, assay in 10 mM NH4OAc buffer pH 6.0
Text: FIG. 5 is a reaction diagram for the conversion of L-lysine (505, analyte precursor) into cadaverine (503, analyte, removes the fluorescent dye) and CO2 (not shown, most of it escapes from the solution) by L-lysine decarboxylase. Dapoxyl (501) was selected as the fluorescent dye and cucurbit[7]uril (a cation receptor) as the macrocycle, the fluorescence of the dapoxyl (501) being increased by the complexing with cucurbit[7]uril. As a result of conversion of the analyte precursor 505 into the analyte 503, there is a decrease in fluorescence during the enzymatic reaction because more and more dye 501 is removed by the analyte and the increase in the fluorescence of the dapoxyl caused by the macrocycle thus falls off. The cucurbituril acts as a cation receptor which binds the cadaverine analyte 503, which has two positive charges, better than the L-lysine analyte precursor 505, which has a single positive charge (total charge). The schematic representation of the lysine decarboxylase enzyme is again that of the arginase which is used in FIG. 1, because no crystal structure exists for lysine decarboxylase. The representation was produced with the Swiss PdbViewer v3.7 program (http://www.expasy.org/spdbv/).
The reaction was carried out in the presence of 2.5 μM of dapoxyl and 200 μM of cucurbit[7]uril in a 10 mM NH4OAc buffer (pH 6.0). Without any chemical change to the L-lysine, without any radio-active marking, and without any antibodies, the enzymatic reaction could thus be followed easily, directly in solution without any further incubation stages, with the help of a commercially available fluorescence spectrometer (Varian Cary Eclipse, λexc=336 nm, λobs=390 nm in the present case). It can clearly be seen in this case that the binding constants of lysine (K approx. 2000 M^−1) and cadaverine (K>1000000 M^−1) are very different. […] This is not a problem inasmuch as it is generally only the initial speed as it were of an enzymatic reaction which is determined in order to characterise the reaction. […]

[3] = Binding constants to the macrocycle by fluorescent dye (DBO-amine) displacement

Row | SMILES | Ki [1] [nM] | binding constant K [2] | further results
1 | N[C@@H](CSCCB(O)O)C(=O)O [BEC, S-(2-boronethyl)-L-cysteine] | 4900 ± 500 |  | 
2 | NCCCC[C@H](N)C(=O)O [lysine, L-lysine] |  | approx. 2000 M^−1 | 
3 | N=C(N)NCCC[C@H](N)C(=O)O [arginine, L-arginine] |  |  | binding constant K to the macrocycle ([3]; water, pH 7, 100 μM DBO-amine, 200 μM p-sulphonato-calix[4]arene): 3170 ± 130 M⁻¹
4 | NC(N)=O [urea] |  |  | binding constant to the macrocycle (in words) ([3]; uncharged molecule with a cation receptor, binding can be ignored): extremely low binding constant
5 | N[C@@H](CCCCB(O)O)C(=O)O [ABH, 2(s)-amino-6-boronohexanoic acid] | 1000 ± 100 |  | 
6 | NCCCCCN [cadaverine] |  | > 1000000 M⁻¹ | concentration enough to remove all the fluorescent dye from the macrocycle ([2]; 2.5 μM dapoxyl, 200 μM cucurbit[7]uril, 10 mM NH4OAc buffer pH 6.0): 100 μm
